Species: Rattus norvegicus
Assay: DrugMatrix - Regimen: Daily Repeat
Format: toxicity, organism-based, Sprague-Dawley
Set-up: regimen Daily Repeat, gender Male, age 6-8 weeks
Settings: in vivo, po, route oral GAVAGE, vehicle .5 % CMC; for BASOPHIL / EOSINOPHIL / ERYTHROCYTE COUNT / HEMATOCRIT / HEMOGLOBIN / LEUKOCYTE COUNT / LYMPHOCYTE / MEAN CORPUSCULAR HEMOGLOBIN / MEAN CORPUSCULAR HEMOGLOBIN CONCENTRATION / MEAN CORPUSCULAR VOLUME / MONOCYTE / NEUTROPHIL / PLATELET COUNT: tissue Blood; for ALANINE AMINOTRANSFERASE / ALBUMIN / ALKALINE PHOSPHATASE / ASPARTATE AMINOTRANSFERASE / BLOOD UREA NITROGEN / CHLORIDE / CHOLESTEROL / CREATINE PHOSPHOKINASE / CREATININE / GLUCOSE / PHOSPHORUS / POTASSIUM / SODIUM / TOTAL BILIRUBIN / TOTAL PROTEIN: tissue Plasma
[1] = 0 mg/kg, 72 h, dose level Control, time 3 day
[2] = 0 mg/kg, 120 h, dose level Control, time 5 day
[3] = 25 mg/kg, 72 h, dose level Low, time 3 day
[4] = 25 mg/kg, 120 h, dose level Low, time 5 day

In the case of N=C(N)NCCN1CCCCCCC1 [GUANETHIDINE], the BASOPHIL [1] was 0%, the EOSINOPHIL [1] was 0% and the “ERYTHROCYTE COUNT” value [1] was 6.34 x10E6/uL. For the same compound, the HEMATOCRIT [1] was 37.62%, the HEMOGLOBIN [1] was 14.82 G/DL and the “LEUKOCYTE COUNT” value [1] was 11.18 x10E3/uL. For the same compound, the LYMPHOCYTE [1] was 87.5%, the “MEAN CORPUSCULAR HEMOGLOBIN” value [1] was 23.48 pg and the “MEAN CORPUSCULAR HEMOGLOBIN CONCENTRATION” value [1] was 39.5 G/DL. The “MEAN CORPUSCULAR VOLUME” value [1] was 59.45 fL, the MONOCYTE [1] was 1.67% and the NEUTROPHIL [1] was 10.83%. For the same compound, the “PLATELET COUNT” value [1] was 1074.83 x10E3/uL, the “ALANINE AMINOTRANSFERASE” value [1] was 36.5 u/L and the ALBUMIN [1] was 3.9 G/DL. For the same compound, the “ALKALINE PHOSPHATASE” value [1] was 370.17 u/L, the “ASPARTATE AMINOTRANSFERASE” value [1] was 63.17 u/L and the “BLOOD UREA NITROGEN” value [1] was 16.83 mg/dL. For the same compound, the CHLORIDE [1] was 99.33 MEQ/L, the CHOLESTEROL [1] was 64.33 mg/dL and the “CREATINE PHOSPHOKINASE” value [1] was 127 u/L. For the same compound, the CREATININE [1] was 0.55 mg/dL, the GLUCOSE [1] was 173.5 mg/dL and the PHOSPHORUS [1] was 10.08 mg/dL. For the same compound, the POTASSIUM [1] was 6.23 MEQ/L, the SODIUM [1] was 143.5 MEQ/L and the “TOTAL BILIRUBIN” value [1] was 0.52 mg/dL. The “TOTAL PROTEIN” value [1] was 6.35 G/DL, the BASOPHIL [2] was 0% and the EOSINOPHIL [2] was 0.17%. The “ERYTHROCYTE COUNT” value [2] was 6.12 x10E6/uL, the HEMATOCRIT [2] was 37.08% and the HEMOGLOBIN [2] was 14.82 G/DL. For the same compound, the “LEUKOCYTE COUNT” value [2] was 11.87 x10E3/uL, the LYMPHOCYTE [2] was 83.33% and the “MEAN CORPUSCULAR HEMOGLOBIN” value [2] was 24.25 pg. For the same compound, the “MEAN CORPUSCULAR HEMOGLOBIN CONCENTRATION” value [2] was 39.97 G/DL, the “MEAN CORPUSCULAR VOLUME” value [2] was 60.65 fL and the MONOCYTE [2] was 1.5%. For the same compound, the NEUTROPHIL [2] was 15%, the “PLATELET COUNT” value [2] was 1042.83 x10E3/uL and the “ALANINE AMINOTRANSFERASE” value [2] was 46 u/L. The ALBUMIN [2] was 3.82 G/DL, the “ALKALINE PHOSPHATASE” value [2] was 369.5 u/L and the “ASPARTATE AMINOTRANSFERASE” value [2] was 65 u/L. The “BLOOD UREA NITROGEN” value [2] was 16.33 mg/dL, the CHLORIDE [2] was 100.67 MEQ/L and the CHOLESTEROL [2] was 57.17 mg/dL. For the same compound, the “CREATINE PHOSPHOKINASE” value [2] was 130 u/L, the CREATININE [2] was 0.53 mg/dL and the GLUCOSE [2] was 163.33 mg/dL. The PHOSPHORUS [2] was 9.53 mg/dL, the POTASSIUM [2] was 6.27 MEQ/L and the SODIUM [2] was 144.83 MEQ/L. The “TOTAL BILIRUBIN” value [2] was 0.55 mg/dL, the “TOTAL PROTEIN” value [2] was 6.32 G/DL and the BASOPHIL [3] was 0%. The EOSINOPHIL [3] was 0%, the “ERYTHROCYTE COUNT” value [3] was 6 x10E6/uL and the HEMATOCRIT [3] was 35.93%. For the same compound, the HEMOGLOBIN [3] was 14.07 G/DL, the “LEUKOCYTE COUNT” value [3] was 11.77 x10E3/uL and the LYMPHOCYTE [3] was 86.33%. For the same compound, the “MEAN CORPUSCULAR HEMOGLOBIN” value [3] was 23.5 pg, the “MEAN CORPUSCULAR HEMOGLOBIN CONCENTRATION” value [3] was 39.17 G/DL and the “MEAN CORPUSCULAR VOLUME” value [3] was 60.07 fL. The MONOCYTE [3] was 0%, the NEUTROPHIL [3] was 13.67% and the “PLATELET COUNT” value [3] was 1321.67 x10E3/uL. For the same compound, the “ALANINE AMINOTRANSFERASE” value [3] was 33.67 u/L, the ALBUMIN [3] was 3.63 G/DL and the “ALKALINE PHOSPHATASE” value [3] was 372.67 u/L. The “ASPARTATE AMINOTRANSFERASE” value [3] was 57.67 u/L, the “BLOOD UREA NITROGEN” value [3] was 11.33 mg/dL and the CHLORIDE [3] was 98.67 MEQ/L. The CHOLESTEROL [3] was 63.67 mg/dL, the “CREATINE PHOSPHOKINASE” value [3] was 142.33 u/L and the CREATININE [3] was 0.43 mg/dL. The GLUCOSE [3] was 175.67 mg/dL, the PHOSPHORUS [3] was 12.27 mg/dL and the POTASSIUM [3] was 5.97 MEQ/L. The SODIUM [3] was 143.67 MEQ/L, the “TOTAL BILIRUBIN” value [3] was 0.33 mg/dL and the “TOTAL PROTEIN” value [3] was 5.8 G/DL. For the same compound, the BASOPHIL [4] was 0%, the EOSINOPHIL [4] was 0.67% and the “ERYTHROCYTE COUNT” value [4] was 5.92 x10E6/uL. For the same compound, the HEMATOCRIT [4] was 35.83%, the HEMOGLOBIN [4] was 14.4 G/DL and the “LEUKOCYTE COUNT” value [4] was 11.83 x10E3/uL. The LYMPHOCYTE [4] was 89.67%, the “MEAN CORPUSCULAR HEMOGLOBIN” value [4] was 24.33 pg and the “MEAN CORPUSCULAR HEMOGLOBIN CONCENTRATION” value [4] was 40.17 G/DL. The “MEAN CORPUSCULAR VOLUME” value [4] was 60.63 fL, the MONOCYTE [4] was 1% and the NEUTROPHIL [4] was 8.67%. The “PLATELET COUNT” value [4] was 1170.33 x10E3/uL, the “ALANINE AMINOTRANSFERASE” value [4] was 33 u/L and the ALBUMIN [4] was 3.53 G/DL. For the same compound, the “ALKALINE PHOSPHATASE” value [4] was 229.67 u/L, the “ASPARTATE AMINOTRANSFERASE” value [4] was 54.67 u/L and the “BLOOD UREA NITROGEN” value [4] was 10.33 mg/dL. For the same compound, the CHLORIDE [4] was 100.33 MEQ/L, the CHOLESTEROL [4] was 57.67 mg/dL and the “CREATINE PHOSPHOKINASE” value [4] was 129.33 u/L. For the same compound, the CREATININE [4] was 0.47 mg/dL, the GLUCOSE [4] was 170.67 mg/dL and the PHOSPHORUS [4] was 11.13 mg/dL. The POTASSIUM [4] was 5.9 MEQ/L, the SODIUM [4] was 145.33 MEQ/L and the “TOTAL BILIRUBIN” value [4] was 0.2 mg/dL. For the same compound, the “TOTAL PROTEIN” value [4] was 5.7 G/DL.
